Experimental data published in patent US9187539B2, “Compositions having antiangiogenic activity and uses thereof” (The Johns Hopkins University, priority 2005, dated 2015).

Assays:
[1] = test system: human umbilical vein endothelial cells (HUVECs); experiment: HUVEC proliferation assay (WST-1), 2- and 4-day, 5,000 cells per well; format: cell-based; details: for concentration-response profile in words: 2- and/or 4-day assay; for anti-proliferative activity in words at 0.01 μg/ml: 0.01 μg/ml peptide
Protocol: The effect of the various peptides on cell proliferation was assayed, by administering the peptides to human umbilical vein endothelial cells (HUVECs) in culture. 45 peptides belonging to four distinct families of proteins including the thrombospondin-1 containing proteins, the C-X-C chemokines, collagen derived peptides and peptides from tissue inhibitors of metalloproteinases were tested. The potency of each of the peptides was tested using the proliferation assay at 2 days and 4 days following administration of the peptides and a similar assay using a different cell density at 3 days. In the four-day experiments, the cell medium was changed after the second day of incubation and the peptide was replaced at the initial concentration together with the medium. TNP-470 is an antiangiogenic compound that was used as a positive control for assessing anti-angiogenic efficacy. The activity of each polypeptide was, therefore, expressed as a percentage of TNP-470 activity, i.e., the optical density obtained experimentally is scaled such that the negative control is 0% and the positive control is 100% as explained below (FIG. 4). Each plate included a well having HUVEC cells that received 0.1 μg/ml TNP-470. For example, a peptide having the same effect on endothelial cell proliferation would have 100% of the activity of TNP-470. Note that activity could exceed 100%. In this assay, the effects of the predicted anti-angiogenic fragments on the ability of HUVECs to proliferate was characterized. […] A commonly used methodology to test for proliferation is to monitor the viability and metabolic activity of endothelial cells, in the presence of the anti-angiogenic fragments at different concentrations and various time steps. The cell proliferation reagent WST-1 was used as a substrate/assay to measure the metabolic activity of viable cells. WST-1 is a colorimetric, non-radioactive assay and can be performed in a microplate. It is suitable for measuring cell proliferation, cell viability or cytotoxicity. The assay is based on the reduction a red tetrazolium salt, WST-1, by viable, metabolically active, cells to form the yellow formazan crystals soluble in the cell medium. […] The cells are cultured described above. Once cells have reached 80% confluence they are trypsinized and resuspended in EGM-2. The cell density is estimated using a hemocytometer. All of the endothelial cells used were from passage 4 to passage 8. The proliferation assay involved two steps. During the first step the cells, approximately 5,000 cells per well for a 96-well plate, were seeded without any extracellular matrix substrate on the wells overnight (8 hours). The initial cell culture medium was removed using a multichannel pipetor and the candidate peptides were applied. A logarithmic scale of four different concentrations of 0.01 μg/ml, 0.1 μg/ml, 1 μg/ml and 10 μg/ml of each peptide was used. Each of the concentrations was tested in quadruplicate. The viability of the cells was challenged at 2 and 4 days upon the application of the peptide. As a positive control for decreased viability, 0.1 μg/ml of TNP-470 (O-(chloro-acetyl-carbamoyl) fumagillol, a synthetic analogue of fumagillin; TNP-470 was provided by NCI, was provided along with the medium, and as a negative control for normal viability, the cells were cultured without the addition of any agent. The cells were then incubated with 10 μl per well of the red WST-1 reagent for approximately 2 to 4 hours. During this incubation period, viable cells converted, in their mitochondria, the red WST-1 to the yellow formazan crystals which dissolve in the medium. The second step of the assay involved the quantification of the changes in proliferation which was performed by measuring the change in color after lysing the cells. The samples were read using the ELISA plate reader Victor3 V (Perkin Elmer) at a wavelength of […]. The amount of color produced is directly proportional to the number of viable cells. […]

[2] = test system: human umbilical vein endothelial cells (HUVECs); experiment: HUVEC proliferation assay (WST-1), 3-day, 2,000 cells per well; format: cell-based; details: 3-day assay; for anti-proliferative activity in words at high peptide concentration: high/highest applied concentration (30 μg/ml where stated); for anti-proliferative activity in words: overall; for anti-proliferative activity (maximum or stated level), scaled so that TNP-470 = 100%: 0.01-30 μg/ml
Protocol: In addition to the 2 and 4 day proliferation experiment where 5,000 cells per well were seeded, the effects of the peptides on the proliferating ability of HUVECs were also studied using cells seeded at a density of 2,000 cells per well. This lower cell seeding density allowed the experiment to be extend for an additional day without changing the cell medium. The effects of the peptides when applied to the cells for 3 consecutive days is also reported herein. The proliferation assay again involved two steps. During the first step 2,000 cells per well for a 96-well plate were seeded without any extracellular matrix substrate on the wells overnight (8 hours). The initial cell culture medium was removed using a multichannel pipetor. To synchronize the cells, the cells were serum starved for 4 hours and the candidate peptides were applied. During serum starvation the cell culture medium was changed from a “full” medium to the “basal” medium, which contained no growth factors or serum. Serum starvation for 4 hours had no effect on the proliferation of the cells. For this assay, the logarithmic scale of four different concentrations of 0.01 μg/ml, 0.1 μg/ml, 1 μg/ml and 10 μg/ml of peptide was used. In addition, a larger concentration of 30 μg/ml peptide was also applied. Each of the concentrations was again tested in quadruplicate. After the third day of peptide application the WST-1 dye was applied for approximately 2 to 4 hours (usually after 3 hours the color saturates). The proliferation was later tested on the ELISA plate reader as described for the 2 and 4 day assay. Note that the 2- and 4-day and the 3-day protocols differed in that 5,000 cells/well versus 2,000 cells/well seeded, respectively.

[3] = 2- and 4-day assay, day not specified
[4] = 2- and 4-day assay, day not specified or constant throughout the four days
[5] = 10 μg/ml peptide, 2- and 4-day assay
[6] = 4 days of peptide application, 0.01-10 μg/ml

QPWSQCSATCGDGVRERRR [SEQ ID NO: 64, THSD1 AAQ88516.1: 347-365]
peptide concentration at which maximum activity was observed [1, 3]: 0.01 µg/mL
anti-proliferative activity (maximum or stated level), scaled so that TNP-470 = 100% [1, 4]: approximately 20%
anti-proliferative activity in words at high peptide concentration [2]: substantial increase in activity

SAWRACSVTCGKGIQKRSR [SEQ ID NO: 43, Fibulin-6 CAC37630.1: 1574-1592]
anti-proliferative activity (maximum or stated level), scaled so that TNP-470 = 100% [1, 4]: 30%
concentration-response profile in words [2]: peptide activity increasing as concentration increased

SEWSDCSVTCGKGMRTRQR [SEQ ID NO: 73, VSGP/F-spondin BAB18461.1: 621-639]
concentration-response profile in words [1]: biphasic profile
anti-proliferative activity in words ([1]; 2 days of peptide application): not statistically significant
peptide concentration at which maximum activity was observed ([1]; 4 days): 0.01 µg/mL
anti-proliferative activity in words ([1]; 4 days of peptide application): notable activity
anti-proliferative activity in words at high peptide concentration [2]: increased activity

SKWSECSRTCGGGVKFQER [SEQ ID NO: 29, ADAMTS-18 Q8TE60: 596-614]
anti-proliferative activity, TNP-470 = 100% ([1]; 1 μg/ml peptide, 2 days): 30%
anti-proliferative activity in words at 10 μg/ml [1, 5]: reduced
concentration-response profile in words [1]: biphasic response
anti-proliferative activity in words at high peptide concentration [2]: significantly increased

SPWSKCSAACGQTGVQTRTR [SEQ ID NO: 39, CILP AAQ89263.1: 156-175]
anti-proliferative activity, TNP-470 = 100% [1, 5]: 5%
anti-proliferative activity, TNP-470 = 100% ([1]; 0.01 and 0.1 μg/ml peptide, 2- and 4-day assay): 15%
peptide concentration at which maximum activity was observed [1, 3]: 1 µg/mL
anti-proliferative activity (maximum or stated level), scaled so that TNP-470 = 100% [1, 4]: ~30%
concentration-response profile in words [1]: biphasic activity
peptide concentration at which maximum activity was observed [2]: 0.1 µg/mL

SPWSPCSGNCSTGKQQRTR [SEQ ID NO: 65, THSD3 AAH33140.1: 280-298]
anti-proliferative activity in words ([1]; 2- and 4-day assay, overall): did not effect endothelial cell proliferation
anti-proliferative activity in words [2]: did not effect endothelial cell proliferation

SPWSPCSTSCGLGVSTRI [SEQ ID NO: 74, WISP-1 AAH74841.1: 221-238]
anti-proliferative activity in words ([1]; 2 days of peptide application): not statistically significant
anti-proliferative activity (maximum or stated level), scaled so that TNP-470 = 100% [1, 6]: ~20%
anti-proliferative activity in words at high peptide concentration [2]: reached higher values
anti-proliferative activity in words [2]: intermediate levels

SPWSQCSVRCGRGQRSRQVR [SEQ ID NO: 69, TSRC1 AAH27478.1: 140-159]
concentration-response profile in words [1]: biphasic
anti-proliferative activity in words ([1]; 2 days of peptide application): minimal activity
peptide concentration at which maximum activity was observed ([1]; 4 days): 0.1 µg/mL
anti-proliferative activity in words ([1]; 4 days of peptide application): prominent activity
anti-proliferative activity (maximum or stated level), scaled so that TNP-470 = 100% [1, 6]: 25%
anti-proliferative activity in words at high peptide concentration [2]: activity increased

SPWSQCTASCGGGVQTR [SEQ ID NO: 24, ADAMTS-16 Q8TE57: 1133-1149]
concentration-response profile in words [1]: biphasic response
anti-proliferative activity in words ([1]; 4 days of peptide application): strong activity
anti-proliferative activity (maximum or stated level), scaled so that TNP-470 = 100% [1, 6]: 30%
anti-proliferative activity in words at high peptide concentration [2]: increase in peptide activity

TAWGPCSTTCGLGMATRV [SEQ ID NO: 75, WISP-2 AAQ89274.1: 199-216]
anti-proliferative activity in words at 0.01 μg/ml ([1]; 2- and 4-day assay): quite potent
concentration-response profile in words [1]: biphasic response
anti-proliferative activity (maximum or stated level), scaled so that TNP-470 = 100% [2]: 20%

TEWSACNVRCGRGWQKRSR [SEQ ID NO: 71, UNC5D AAQ88514.1: 259-277]
anti-proliferative activity (maximum or stated level), scaled so that TNP-470 = 100% [1, 4]: 20%
concentration-response profile in words [2]: biphasic
anti-proliferative activity (maximum or stated level), scaled so that TNP-470 = 100% [2]: 30%

TEWSACSKTCGMGISTRV [SEQ ID NO: 41, CTGF CAC44023.1: 204-221]
anti-proliferative activity in words ([1]; 2 days of peptide application): low
peptide concentration at which maximum activity was observed ([1]; 4 days): 1 µg/mL
anti-proliferative activity (maximum or stated level), scaled so that TNP-470 = 100% [1, 6]: 40%
anti-proliferative activity in words [2]: resembled those observed in the 2-day assay

TEWSVCNSRCGRGYQKRTR [SEQ ID NO: 70, UNC5C AAH41156.1: 267-285]
anti-proliferative activity in words ([1]; 2 days of peptide application): negligible activity
anti-proliferative activity (maximum or stated level), scaled so that TNP-470 = 100% [1, 6]: 20%
anti-proliferative activity, TNP-470 = 100% ([2]; 30 μg/ml peptide): 40%
peptide concentration at which maximum activity was observed [2]: 10 µg/mL
anti-proliferative activity (maximum or stated level), scaled so that TNP-470 = 100% [2]: 20%

TEWTACSKSCGMGFSTRV [SEQ ID NO: 46, NOVH AAL92490.1: 211-228]
peptide concentration at which maximum activity was observed [1, 3]: 0.01 µg/mL
anti-proliferative activity (maximum or stated level), scaled so that TNP-470 = 100% [1, 4]: 20%
concentration-response profile in words [2]: monotonic increase with concentration

TKWTPCSRTCGMGISNRV [SEQ ID NO: 76, WISP-3 CAB16556.1: 191-208]
anti-proliferative activity in words at 0.01 μg/ml ([1]; 2- and 4-day assay): shows potency
concentration-response profile in words [1]: biphasic
concentration-response profile in words [2]: increased significantly as the concentration increased

TQWTSCSKTCNSGTQSRHR [SEQ ID NO: 38, C6 AAB59433.1: 30-48]
anti-proliferative activity (maximum or stated level), scaled so that TNP-470 = 100% [1, 6]: 35%
concentration-response profile in words [2]: biphasic
anti-proliferative activity (maximum or stated level), scaled so that TNP-470 = 100% [2]: 25%

TSWSQCSKTCGTGISTRV [SEQ ID NO: 42, CYR61 AAR05446.1: 234-251]
peptide concentration at which maximum activity was observed [1, 3]: 0.01 µg/mL
anti-proliferative activity (maximum or stated level), scaled so that TNP-470 = 100% [1, 4]: 30%
concentration-response profile in words [1]: biphasic
peptide concentration at which maximum activity was observed [2]: 0.1 µg/mL
anti-proliferative activity (maximum or stated level), scaled so that TNP-470 = 100% [2]: 30%

WDECSATCGMGMKKRHR [SEQ ID NO: 72, VSGP/F-spondin BAB18461.1: 567-583]
anti-proliferative activity in words ([1]; 2 days of peptide application): not statistically significant
anti-proliferative activity (maximum or stated level), scaled so that TNP-470 = 100% [1, 6]: 10%
anti-proliferative activity in words [2]: exhibited activity

WTRCSSSCGRGVSVRSR [SEQ ID NO: 66, THSD6 AAH40620.1: 44-60]
peptide concentration at which maximum activity was observed [1, 3]: 0.1 µg/mL
concentration-response profile in words [1]: biphasic
anti-proliferative activity (maximum or stated level), scaled so that TNP-470 = 100% ([1]; 2 days of peptide application, 0.01-10 μg/ml): approximately 20%
concentration-response profile in words [2]: biphasic
anti-proliferative activity (maximum or stated level), scaled so that TNP-470 = 100% [2]: ~30%

YCNIHQVCHYAQRNDRSYWL [SEQ ID NO: 86, α4CIV CAA56943.1: 1524-1543]
anti-proliferative activity in words ([1]; 2- and 4-day assay, overall): low anti-proliferative activity
concentration-response profile in words [2]: increasing at higher peptide concentrations
anti-proliferative activity in words [2]: greater
